Results: patent EP3463364B1, “PYRAZINE DERIVATIVES FOR USE IN THE TREATMENT OF DISEASES ASSOCIATED WITH CELL CYCLE DYSREGULATION” (University of Patras, priority 2016, dated 2017)

Biological target: T1, exogenous Geminin-Cdtl protein complex (Homo sapiens, UniProt O75496+Q9H211)
T1 construct: expressed in transfected cells; host or cells: MCF7
T1 sequence (Q9H211 1-546): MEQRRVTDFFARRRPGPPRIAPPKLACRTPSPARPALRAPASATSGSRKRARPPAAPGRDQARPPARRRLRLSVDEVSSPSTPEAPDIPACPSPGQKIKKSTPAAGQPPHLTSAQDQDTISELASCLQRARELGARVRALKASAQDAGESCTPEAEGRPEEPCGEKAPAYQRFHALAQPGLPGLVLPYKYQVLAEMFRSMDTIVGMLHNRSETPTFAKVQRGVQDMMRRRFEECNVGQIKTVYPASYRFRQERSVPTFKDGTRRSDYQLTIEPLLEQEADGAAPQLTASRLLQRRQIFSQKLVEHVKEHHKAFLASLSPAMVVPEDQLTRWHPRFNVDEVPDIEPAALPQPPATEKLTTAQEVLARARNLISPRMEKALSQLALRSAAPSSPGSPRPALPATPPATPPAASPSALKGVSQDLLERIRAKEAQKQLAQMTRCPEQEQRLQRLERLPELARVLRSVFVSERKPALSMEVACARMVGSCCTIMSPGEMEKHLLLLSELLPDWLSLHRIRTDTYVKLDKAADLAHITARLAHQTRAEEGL
T1 sequence (O75496 1-209): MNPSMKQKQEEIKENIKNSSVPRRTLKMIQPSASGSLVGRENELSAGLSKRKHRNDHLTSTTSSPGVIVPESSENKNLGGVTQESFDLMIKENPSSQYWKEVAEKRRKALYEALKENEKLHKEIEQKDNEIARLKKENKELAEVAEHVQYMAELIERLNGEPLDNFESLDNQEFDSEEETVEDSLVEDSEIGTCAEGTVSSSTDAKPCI
Experiment: FRET acceptor photobleaching cellular assay in co-transfected MCF7 cells (Cdt1-GFP & Geminin-dhcRed)
Assay type: cell-based
Conditions: 100µM, 24-hour incubation, MCF7 cells co-transfected with Cdt1-GFP & Geminin-dhcRed (Fig. 3)
Protocol: A cellular assay was developed and applied using epithelial cells of breast adenocarcinoma (MCF7), for the purpose of the ex vivo study of the ability of the synthetic chemical compound AF-615/30368009 to inhibit formation and/or disrupt the exogenous Geminin-Cdtl protein complex.
The appropriate number of cells was seeded onto glass coverslips and cells were allowed in culture in order to adhere. Then they were transiently co-transfected with plasmid expression vectors pcDNA3.1-EGFP and pdiHcRed-N1 containing the DNA regions encoding for the proteins Cdtl-GFP and Geminin-dhcRed respectively. Three to five hours after co-transfection, the medium was removed and replaced with fresh medium which contained the synthetic chemical compound AF-615/30368009 at a concentration of 100µM. […]
MCF7 cancer cells fixed as described above were used to perform FRET acceptor photobleaching. In order to quantify the efficiency (E) of the FRET phenomenon, the following equation was used: (4) E = (Dpost - Dpre)/Dpost, wherein Dpre and Dpost is the mean value of fluorescence intensity of the donor before and after photobleaching of the acceptor, respectively.
For the purposes of this invention the inhibitory effect of the synthetic compound AF-615/30368009 on the exogenous Geminin-Cdtl protein complex was calculated as the percent (%) change in efficiency (E) of the FRET phenomenon. […]

O=C(NNC(=S)N1CCOCC1)c1cnccn1 [AF-615/30368009, N'-(morpholine-4-carbothioyl)pyrazine-2-carbohydrazide]
efficiency (E) of the FRET phenomenon: decrease in (E), although not statistically significant
